The test system of one data set is Nostz rat. Briefly: Antidiabetic activity in the Nostz rat (non-insulin-dependent diabetes induced using streptozotocin). Type of data set: in vivo. The following applies: po, 2 h, blood 2 h after final administration, diabetic rats, read-out: percentage change in glycaemia relative to d0 (before treatment); for change in vivo at 20 mg/kg: 20 mg/kg/d oral; for change in vivo at 200 mg/kg: 200 mg/kg/d oral. How it is done: The antidiabetic activity of the compounds of formula (I) was determined orally on an experimental model of non-insulin-dependent diabetes induced in the rat using streptozotocin.
The model of non-insulin-dependent diabetes is obtained in rats by neonatal injection (on the day of birth) of streptozotocin.
The diabetic rats used are 8 weeks old. The animals are kept from the day of their birth to the day of the experiment in an animal house at a regulated temperature of from 21 to 22° C. and are subjected to a fixed cycle of light (from 7.00 am to 7.00 pm) and darkness (from 7.00 pm to 7.00 am). Their diet consisted of a maintenance diet; water and food were provided ad libitum, except for the 2 hours fasting prior to the tests in which food is withdrawn (post-absorptive state).
The rats are treated orally for one (d1) or four (d4) days with the test product. Two hours after the final administration of the product and 30 minutes after anaesthesia of the animals with sodium pentobarbital (Nembutalo®), […] of blood is sampled from the end of the tail.

What is called melting point is the temperature of the solid-liquid transition.

The structures appear in SMILES notation. Counter-ions that a name gives are not always drawn. Like-named read-outs stand apart in the source and are kept apart here. A value given as a limit tells only on which side of the number the result lay.

Consider `Cc1cccc(C)c1NC(=O)[C@H](C(C)C)N(C)C(=N)N` [Compound 10], for which, in the data set with Nostz rat (d1 (one day of treatment)), the change in vivo at 20 mg/kg was -13% and the change in vivo at 200 mg/kg is -3%. Further, in the data set with Nostz rat (d4 (four days of treatment)), the change in vivo at 20 mg/kg is -15% and the change in vivo at 200 mg/kg was -16%.
`CC(C)c1cccc(C(C)C)c1NC(=O)CNC(=N)N` (as salt: HCl) [Compound 2] gave a melting point of 260 to 262 °C.
Still for that read-out and setting: the figure for `N=C(N)NCC(=O)NCc1ccccc1` (as salt: HCl) [Compound 15] is 144 to 146 °C.
In the case of `CCC(C)[C@H](NC(=N)N)C(=O)Nc1c(C)cccc1C` (stereo partly drawn) [Compound 8], in the data set on Nostz rat (d1 (one day of treatment)), the change in vivo at 20 mg/kg is -11% and the change in vivo at 200 mg/kg is -8%. In addition, in the data set with Nostz rat (d4 (four days of treatment)), the change in vivo at 20 mg/kg was -14% and the change in vivo at 200 mg/kg was -10%.
Consider `N=C(N)NCC(=O)Nc1c(Cl)cccc1Cl` (as salt: HCl) [Compound 12], for which the melting point fell in the range of 181 to 183 °C.
In the case of `Cc1cc(C)c(NC(=O)CNC(=N)N)c(C)c1` (as salt: HCl) [Compound 7], the melting point is more than 260 °C.
On to `Cc1cccc(C)c1NC(=O)CN(C)C(=N)N` [Example 5], for which the change in vivo at 20 mg/kg with Nostz rat (d1 (one day of treatment)) was -2%; in the data set with Nostz rat (d4 (four days of treatment)), -7%. Further, the change in vivo at 200 mg/kg in the data set with Nostz rat (d1 (one day of treatment)) is -16%; in the data set on Nostz rat (d4 (four days of treatment)), -25%.
The corresponding values for `Cc1cccc(C)c1NC(=O)[C@H](CC(C)C)NC(=N)N` [Compound 9] are -4%, -15%, 7% and -4%.
As to `N=C(N)NCC(=O)N(Cc1ccccc1)Cc1ccccc1` (as salt: HCl) [Compound 11], the melting point lay in the range of 217 to 219 °C.
As for `N=C(N)NCC(=O)Nc1c(Cl)cccc1Cl` [Compound 12], the change in vivo at 20 mg/kg in the data set on Nostz rat (d1 (one day of treatment)) was -9%; in the data set on Nostz rat (d4 (four days of treatment)) it was -13%. For the same compound, the change in vivo at 200 mg/kg in the data set on Nostz rat (d1 (one day of treatment)) is -14%; in the data set on Nostz rat (d4 (four days of treatment)), -27%.
As for `CSc1cc(C)nc(SC)c1NC(=O)CNC(=N)N` (as salt: HCl) [Example 3], the melting point lay in the range of 249 to 251 °C.
Take `N=C(N)NCC(=O)N(Cc1ccccc1)Cc1ccccc1` [Compound 11]: the figures for the change in vivo at 20 mg/kg in the data set on Nostz rat (d1 (one day of treatment)) and in the data set on Nostz rat (d4 (four days of treatment)) were -14% and -9%, respectively. Further, the change in vivo at 200 mg/kg was -3% with Nostz rat (d1 (one day of treatment)) and -16% in the data set with Nostz rat (d4 (four days of treatment)).
As to `Cc1cccc(C)c1NC(=O)[C@H](C)NC(=N)N` (as salt: HCl) [Compound 6], the melting point was 159 to 161 °C.
`Cc1cc(C)c(NC(=O)CNC(=N)N)c(C)c1` [Compound 7]: in the data set with Nostz rat (d1 (one day of treatment)), the change in vivo at 20 mg/kg is -9% and the change in vivo at 200 mg/kg is -3%. Also, in the data set on Nostz rat (d4 (four days of treatment)), the change in vivo at 20 mg/kg is -9% and the change in vivo at 200 mg/kg was -10%.
`Cc1cccc(C)c1NC(=O)CCNC(=N)N` [Example 4] returned a melting point of 223 to 225 °C. Moreover, in the data set on Nostz rat (d1 (one day of treatment)), the change in vivo at 20 mg/kg is -1% and the change in vivo at 200 mg/kg was -13%. In the data set with Nostz rat (d4 (four days of treatment)), the change in vivo at 20 mg/kg was -11% and the change in vivo at 200 mg/kg is -15%.
The compound `Cc1cccc(C)c1NC(=O)CN(C)C(=N)N` (as salt: HCl) [Example 5] registered a melting point of 227 to 229 °C.
As to `CSc1cc(C)nc(SC)c1NC(=O)CNC(=N)N` [Example 3], in the data set on Nostz rat (d1 (one day of treatment)), the change in vivo at 20 mg/kg is 7% and the change in vivo at 200 mg/kg was -5%. Also, in the data set on Nostz rat (d4 (four days of treatment)), the change in vivo at 20 mg/kg was -7% and the change in vivo at 200 mg/kg is -4%.
`Cc1cccc(C)c1NC(=O)[C@H](C)NC(=N)N` [Compound 6]: in the data set on Nostz rat (d1 (one day of treatment)), the change in vivo at 20 mg/kg came to 8% and the change in vivo at 200 mg/kg is -4%. Moreover, in the data set on Nostz rat (d4 (four days of treatment)), the change in vivo at 20 mg/kg is -3% and the change in vivo at 200 mg/kg is -18%.
As to `Cc1cccc(C)c1NC(=O)CNC(=N)N` [Example 1], the melting point lay in the range of 255 to 257 °C. In the data set with Nostz rat (d1 (one day of treatment)), the change in vivo at 20 mg/kg is -3% and the change in vivo at 200 mg/kg was -20%. Also, in the data set on Nostz rat (d4 (four days of treatment)), the change in vivo at 20 mg/kg was -7% and the change in vivo at 200 mg/kg was -24%.

For the origin of these results see patent US6518458B1, “(Aminoiminomethyl) amino) alkane-carboxamides and their applications in therapy” (Merck Patent GmbH, priority 1999, dated 2003).
